Test results as given in a melting point compilation (Tetko et al.; mined from patent text by program, amines drawn as free bases though some values may be those of a salt).

SMILES	melting point [°C]
O=c1nc(-c2cc(-c3ccccc3)ccn2)sc2ccccc12	164 to 165
CCCCNC(=O)OC1c2cc(C(F)(F)F)ccc2C(=O)N1c1ccc2ccc(Cl)nc2n1 (stereo not given)	120
COc1ncc(-c2cc(C=CC(=O)c3ccc(C(=O)O)cc3)c(OC)cc2OC)c(OC)n1	203 to 205
c1ccc(-c2nnn[nH]2)c(-c2ccc(CNc3ccnc4ccnn34)cc2)c1	150 to 155
Cn1c(=O)[nH]c(=O)n(-c2cc([N+](=O)[O-])c(F)cc2Cl)c1=O	135 to 139
Cc1cc(=O)c(O)c(C(C)O)o1 (stereo not given)	127 to 130
NC(C(=O)O)c1ccc(C(=O)O)cc1F (stereo not given)	250 to 255
CN1CCCC(O)(c2nccnc2Cl)C1 (stereo not given)	111 to 112
CC(C)CN(C=NS(=O)(=O)c1c(Cl)nc2ccc(Cl)nn12)CC(C)C	151 to 154
C=CCc1c(C)nc(C)c(C(=O)Nc2c(CC)cc(C)cc2CC)c1Cl	192 to 194
CC(=O)OCC(=O)Nc1cccc(NC(=O)COC(C)=O)c1C#N	151 to 153
COC(=O)C1=C(C)NC(C)=C(C(=O)OC)C1C1CCC(C(=O)OC)C1 (stereo not given)	144 to 145
O=C(O)CSCc1ccc([N+](=O)[O-])cc1	101 to 104
Cc1cc(=O)n(-c2cc(C(=O)O)c(Cl)cc2F)c(=O)n1C(F)F	247 to 248
COC(=O)C(C(=O)OC)C(=O)C(C)Oc1ccc(Oc2ccc(C(F)(F)F)cc2)cc1 (stereo not given)	40 to 44
O=C(N1CCCN(C(=O)C(F)(F)F)CCN(C(=O)C(F)(F)F)CCCN(C(=O)C(F)(F)F)CC1)C(F)(F)F	217 to 218
O=C(Nc1cc(C(F)(F)F)cc(C(F)(F)F)c1)c1ccccc1SSc1ccccc1C(=O)Nc1cc(C(F)(F)F)cc(C(F)(F)F)c1	213 to 214
CC(=O)NNc1nc(O)nc(-c2ccc(Cl)cc2)n1	250
O=C(O)C1CSC(c2cccc(OCCO[N+](=O)[O-])c2)N1 (stereo not given)	117 to 119
CCCS(=O)(=O)c1cc(C(=O)CCC(=O)c2cc(OC)c(OC)c(OC)c2)cc(OC)c1OCc1ccccc1	148 to 150
O=C(CCCN1CC=C(c2noc(C3CC3)n2)CC1)c1ccc(F)cc1	67 to 68

SMILES	melting point [°C]
OCCCCCCCCCCCOc1ccc(O)cc1	99 to 100
OCC#Cc1cccnc1	99 to 100
OCc1[nH]c(=S)n(C2CCc3ccccc3C2)c1CO (stereo not given)	199 to 200
CCCCCCCCCCCCCCCNC(=O)OCCOCCOCCOC(=O)NCc1ccccn1	58 to 62
COc1cc2c(c(Cl)c1Cl)C(=O)c1ccccc1-2	268 to 270
N#Cc1cccc(C(Cl)(Cl)Cl)c1Cl	106 to 107
COc1ccc2c(c1)CCc1c(Cl)cccc1S2	73 to 74
CC(=O)CC(=O)N[C@@H](CC(=O)O)C(=O)O	127 to 130
C=C1CCn2c(CCc3ccccc3)nc3cccc1c32	81 to 82.2
O=C(O)c1cnc(-c2nnn[nH]2)c2ccccc12	292
O=C1NCN(c2ccccc2)C12CCN(C1CCC(c3ccc(F)cc3)(c3ccc(F)cc3)CC1)CC2	249 to 253
CCCCOc1ccc(NC(=O)Nc2ccc(S(N)(=O)=O)cc2)cc1	236 to 239
Cn1c(C(F)(F)F)cc(=O)n(-c2c(F)cc(Cl)c3[nH]c(=O)oc23)c1=O	67 to 71
O=C(Cc1cccs1)N1C(=O)OC[C@@H]1Cc1ccccc1	56 to 59
C/C(NCCCc1ccccc1)=C(\C#N)C(N)=S	125 to 126
NS(=O)(=O)OCCOc1ccc(OCc2ccccc2)cc1	125 to 128
c1cc(CN2CCOCC2)c(CN2CCOCC2)s1	58 to 60
NC(=O)c1nn(-c2ccccc2)c2ccccc12	149
CCOC(=O)C=CN1C(C)(C)CC(=O)CC1(C)C	145
Cc1nccnc1C(=O)Nc1ccccc1-c1ccc(OC(F)(F)F)cc1	120 to 121

The next lines start with the values.

melting point [°C]	SMILES
< 50	COC(=O)C1=C(C)NC(C)=C(C(=O)OCCCOc2ccc(CCO)cc2)C1c1cccc([N+](=O)[O-])c1 (stereo not given)
80 to 81	CCOC(=O)c1c(C)nn(-c2ccccn2)c1N
99.5 to 102	CN(C)c1ccc(CNC(=O)c2cccnc2Oc2ccc(F)cc2)cc1
204	O=C(O)c1ccc(OCCn2ccnc2)c(Cl)c1
213 to 214	Cc1ccc(C(=O)NCCCCN2CCN(C(c3ccccc3)c3ccccc3)CC2)c(O)n1
174 to 175	CCOC(=O)c1[nH]c2cc(Cl)cc(Cl)c2c1N(CC(=O)c1ccccc1)Cc1ccccc1
168 to 170	O=S(=O)(CCCCCOc1ccc(C2=C(c3ccc(O)cc3)CCCc3cc(O)ccc32)cc1)CCCC(F)(F)C(F)(F)F
91 to 93	CCCCCCCCCCCCCCCc1cccc(OC)c1C1NC(=O)NC(C)=C1C(=O)OCC (stereo not given)
114 to 115	COc1cccc(CC(=O)O)c1OCCCc1cn(-c2nnc(C(F)(F)F)s2)nc1C(C)C
85 to 86	O=C(c1c(F)cccc1F)N1COCN(c2ccc(SC(F)(C(F)(F)F)C(F)(F)F)cc2F)C1=O
137 to 139	CCCc1nc(NC(=N)N)sc1-c1cccc([N+](=O)[O-])c1
96 to 99	CCOC(=O)C(C)(C)c1ccc2c(c1)Nc1ccccc1S2
129 to 132	CN1CCN(C2=Nc3ccccc3N3CCCc4cccc2c43)CC1
184 to 185	CC(=O)Oc1cc2c(c3ccccc13)Nc1ccccc1S2
115 to 117	CC(C)(C)OC(=O)N1CCN(c2ccccc2O)CC1
79 to 81	CC(C)(C)OC(=O)N1CCC[C@H](COc2cccnc2Br)C1
193 to 196	O=C(O)CN1C(=O)C2(COc3cc4c(cc32)OCCO4)c2ccccc21 (stereo not given)
111 to 112	CCCCN(CCCC)C(=O)c1c(C)n(CCc2ccccc2)c2cc(C(=O)CC)c(O)c(CN3CCCCC3)c12
223 to 225	CCCc1nn2ncc(C(=O)O)c2n1Cc1ccc(-c2ccccc2-c2nc(=O)o[nH]2)cc1
142 to 143	O=C(C1CCCCC1)N(CCN1CCN(c2cccc3cccnc23)CC1)c1ccccc1OC(F)(F)F
264	CCc1cccc(C)c1CNc1cc(C(=O)O)cn2nc(C)nc12
234 to 235	O=C(Nc1noc2ccccc12)N1CCN(c2nc(-c3ccccc3)ns2)CC1
164	O=C(c1ccc(F)cc1)C1CCN(CCn2c(=O)[nH]c3ccccc32)CC1
146	O=C(Cc1ccc(Cl)cc1Cl)Nc1ccccc1
157	CCN(CC)CCCCC1CCN(CCNC(=O)N2c3cc(Cl)ccc3C(=O)Nc3cccnc32)CC1
185 to 186	COc1ccc(C2=NN(C3CCN(C(=O)N4CCOCC4)CC3)C(=O)[C@H]3CC=CC[C@@H]23)cc1Cl (relative stereo)
102	Cc1cc(-n2ccnc2)c2cccc(OCc3c(Cl)ccc(S(=O)(=O)N4CCC[C@H]4C(=O)NCC4CCN(C(=O)c5ccccc5)CC4)c3Cl)c2n1
161 to 163	CC(C)Cn1c(CN)c(-c2ccccc2)c2cc(OCC(N)=O)ccc2c1=O
101 to 103	CCCc1c(OCCCCCOc2ccc(Cl)cc2CCC(=O)O)ccc2c1OCCC2=O
